Like-named read-outs stand apart in the source and are kept apart here.
Legend:
[1] = target: T1, GST-tagged human recombinant active B-Raf (Δ1-415) (Homo sapiens, UniProt P15056); test: B-Raf kinase activity, IMAP coupled assay (B-Raf/MEK1/ERK2, fluorescence polarization); assay type: biochemical; details: bounds also given as pIC50 (>6, >7, >8); 60 min pre-incubation with compound, ATP 50 μM; read-out: IC50, B-Raf IMAP assay
T1 construct: GST; purchased Upstate/Millipore
Description: (§1) In another assay the B-Raf kinase activity can be determined by using an IMAP assay (Immobilized Metal Assay for Phosphochemicals-based coupled assay). IMAP is a homogeneous fluorescence polarization (FP) assay based on affinity capture of phosphorylated peptide substrates. IMAP uses fluorescein-labeled peptide substrates that, upon phosphorylation by a protein kinase, bind to so called IMAP nanoparticles, which are derivatized with trivalent metal complexes. Such binding causes a change in the rate of the molecular motion of the peptide, and results in an increase in the FP value observed for the fluorescein label attached to the substrate peptide. In such an assay, B-Raf phosphorylates unactive MEK1. The phosphorylated MEK1 is capable of phosphorylating ERK2, which subsequently phosphorylates the fluorescein-labeled peptide substrate.
Determination of B-Raf Kinase Activity using an IMAP Assay
as §1, with “Inhibition of” for “In another assay the”, “was measured” for “can be determined by”, “Immobilized” for “IMAP assay (Immobilized”, “assay (IMAP).” for “assay).”, “this” for “such an”
Enzymes, substrate and ATP were diluted at all steps in Kinase Reaction buffer (10 mM Tris-HCl, 10 mM MgCl2, 0.01% Tween-20, 0.05% NaN3 pH 7.2, 1 mM DTT). The final volume at the kinase reaction step of the assay in the 384-well plate was 20 μl. The concentrations within brackets are final concentrations in the assay. B-Raf (GST-tagged human recombinant active B-Raf (Δ1-415), Upstate/Millipore; 0.2 U/ml) was pre-incubated with compounds or DMSO (1% final concentration) for 60 minutes at room temperature in the dark. Thereafter, MEK 1 (GST-tagged human recombinant unactive MEK1 (full-length); 64 ng/ml), ERK2 (GST-tagged human recombinant unactive ERK2 (full-length); 600 ng/ml), peptide substrate (Erktide, Molecular Devices; 50 nM) and ATP (50 μM) were added to the wells and the mix was incubated for another 60 minutes at 30° C. in the dark. Then, IMAP progressive binding buffer (75% 1× buffer A, 25% 1× buffer B, 1:900 Progressive Binding Reagent; Molecular Devices) was added followed by an incubation step of 60 minutes at room temperature in the dark. Finally, the FP signal was read on an Envision Multilabel reader (Perkin Elmer).

[2] = system: phosphorylation of ERK1/2 in A375 cells containing mutant B-Raf (V600E); test: Phospho-ERK FACE assay in A375 (B-Raf mutated) melanoma cell line; assay type: cell-based; details: Homo sapiens, A-375, A375 cells, 2 hours incubation, read-out: IC50, A375 melanoma phospho-ERK assay
Experimental: The B-Raf activity can also be determined in a B-Raf mutated melanoma cell line, such as the A375 cell line. Inhibition of phosphorylation of ERK1/2 can be measured using a Fast Activated Cell-based ELISA (FACE) from Active Motif (Carlsbad, U.S.A., CA). E.g. A375 cells, which are cells containing a mutant form of B-Raf (V600E) and thus contain high levels of phosphorylated ERK, can be incubated with Raf inhibitors. Then cells can be incubated with anti-phospho-ERK antibody and subsequently with horse radish peroxidase (HRP)-labeled secondary antibody. Finally, chemiluminescence reagents can be added, which react with HRP, to give a luminescence signal.
Determination of B-Raf Activity Using a A375 (B-Raf mutated) Melanoma Cell Line (Phospho-ERK FACE Assay)
Inhibition of phosphorylation of ERK1/2 was measured using a Fast Activated Cell-based ELISA (FACE) from Active Motif (Carlsbad, U.S.A., CA). Briefly, A375 cells, which are cells containing a mutant form of B-Raf (V600E) and thus contain high levels of phosphorylated ERK, were incubated for 2 hours with Raf inhibitors. Then, cells were fixed with paraformaldehyde, washed and following quenching and blocking, incubated with anti-phospho-ERK antibody, and as a control, on a separate plate, with ERK antibody. After washing and removal of the primary antibodies, the fixed cells were incubated with horse radish peroxidase (HRP)-labeled secondary antibody. Finally, chemiluminescence reagents were added, which react with HRP, to give a luminescence signal.
Detailed protocol: A375 cells were cultured in DMEM/F12 (Dulbecco's Modified Eagle Medium Nutrient Mixture F-12) (Invitrogen), supplemented with 10% fetal bovine serum (FBS) (Biowhittaker), 100 U/ml penicillin G and 100 μg/ml streptomycin (Gibco). For the phospho ERK assay, cells were seeded at a density of 15,000 cells/well in 100 μl culture medium in 96-well plates and incubated in a humidified atmosphere at 5% CO2 and 37° C. After 24 hours, cells were washed with DMEM/F12 supplemented with 0.1% FBS (assay medium 120 μl of assay medium was added and the plates were incubated overnight in a humidified atmosphere at 5% CO2 and 37° C. The next day, the assay medium was removed and compounds diluted in assay medium were added to the cells. Final DMSO concentration in the assay was 1%. After 2 hours incubation, cells were fixed by replacing the assay medium with 100 μl of 4% formaldehyde (Bio-Connect, Huissen, The Netherlands) in PBS. After 20 minutes of incubation at room temperature, cells were washed three times with 200 μl wash buffer (0.1% (vol/vol) Triton X-100 in PBS from the FACE kit) followed by an incubation of 20 minutes with 100 μl quenching buffer, containing 1% (vol/vol) hydrogen peroxide (Thermo Fisher Scientific) and 0.1% (vol/vol) sodium azide (Sigma-Aldrich) in phosphate-buffered saline. Cells were washed two times with wash buffer, incubated for 1 hour with 100 μl antibody blocking buffer from the kit and washed two times again. 40 μl of diluted antibody against phosphorylated ERK1/2 (1:500 from the FACE kit) was added and incubated overnight at 4° C. The phospho-ERK antibody has been raised against a synthetic phospho-peptide corresponding to residues Thr202 and Tyr204 of human ERK1 and Thr185 and Tyr187 of human ERK2. For the detection of total ERK, antibody against ERK1 and ERK2 (1:500 from the FACE kit) was added. The excessive primary antibody was washed out, and 100 μl diluted HRP-conjugated anti-rabbit IgG (1:2000 from the FACE kit) was added and incubated for 1 hour at room temperature. Secondary antibody was removed and cells were washed 3 times with wash buffer and twice with PBS. 50 μl per well of FACE chemiluminescent working solution was added. Chemiluminescence was measured on an Envision Multilabel reader.

[3] = class given as below 100 nM (pIC50>7)
[4] = between 1 μM and 100 nM (6<pIC50<7)

T1 sequence (P15056 416-766, stated change not applied): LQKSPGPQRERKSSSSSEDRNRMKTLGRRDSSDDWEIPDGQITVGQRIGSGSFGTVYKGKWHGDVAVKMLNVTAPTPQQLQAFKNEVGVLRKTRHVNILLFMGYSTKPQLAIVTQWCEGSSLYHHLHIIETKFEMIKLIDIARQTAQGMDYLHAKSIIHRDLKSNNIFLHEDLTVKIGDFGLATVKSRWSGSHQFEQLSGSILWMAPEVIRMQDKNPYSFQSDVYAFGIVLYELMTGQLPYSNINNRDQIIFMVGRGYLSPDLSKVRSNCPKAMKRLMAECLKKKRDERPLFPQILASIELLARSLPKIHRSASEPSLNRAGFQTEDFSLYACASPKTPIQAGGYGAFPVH

IC50 [1] [µM]	IC50 [2, 3] [µM]	IC50 [2, 4] [µM]	SMILES
< 0.01	< 0.1	–	Cc1ccc(NC(=O)c2cccc(C(C)(C)C#N)c2)cc1NC(=O)c1sc2nccnc2c1N [Example 1, 7-amino-N-(5-(3-(2-cyanopropan-2-yl)benzamido)-2-methylphenyl)thieno[2,3-b]pyrazine-6-carboxamide]
< 0.01	< 0.1	–	CNc1c(C(=O)Nc2cc(NC(=O)c3cccc(C(C)(C)C#N)c3)ccc2C)sc2nccnc12 [Example 2, N-(5-(3-(2-cyanopropan-2-yl)benzamido)-2-methylphenyl)-7-(methylamino)thieno[2,3-b]pyrazine-6-carboxamide]
< 0.1	–	0.1 to 1	Cc1ccc(NC(=O)c2cccc(C(C)(C)C#N)c2)cc1NC(=O)c1sc2ncc(Br)nc2c1N [Example 3, 7-amino-2-bromo-N-(5-(3-(2-cyanopropan-2-yl)benzamido)-2-methylphenyl)thieno[2,3-b]pyrazine-6-carboxamide]
< 0.01	< 0.1	–	Cc1ccc(NC(=O)c2cccc(C(C)(C)C#N)c2)cc1NC(=O)c1sc2ncc(N(C)C)nc2c1N [Example 4, 7-amino-N-(5-(3-(2-cyanopropan-2-yl)benzamido)-2-methylphenyl)-2-(dimethylamino)thieno[2,3-b]pyrazine-6-carboxamide]
< 0.01	–	0.1 to 1	Cc1ccc(NC(=O)c2cccc(C(C)(C)C#N)c2)cc1NC(=O)c1sc2ncc(NCCN(C)C)nc2c1N [Example 5, 7-amino-N-(5-(3-(2-cyanopropan-2-yl)benzamido)-2-methylphenyl)-2-(2-(dimethylamino)ethylamino)thieno[2,3-b]pyrazine-6-carboxamide]
< 0.01	< 0.1	–	CNc1cnc2sc(C(=O)Nc3cc(NC(=O)c4cccc(C(C)(C)C#N)c4)ccc3C)c(N)c2n1 [Example 6, 7-amino-N-(5-(3-(2-cyanopropan-2-yl)benzamido)-2-methylphenyl)-2-(methylamino)thieno[2,3-b]pyrazine-6-carboxamide]
< 0.1	< 0.1	–	CCNc1cnc2sc(C(=O)Nc3cc(NC(=O)c4cccc(C(C)(C)C#N)c4)ccc3C)c(N)c2n1 [Example 7, 7-amino-N-(5-(3-(2-cyanopropan-2-yl)benzamido)-2-methylphenyl)-2-(ethylamino)thieno[2,3-b]pyrazine-6-carboxamide]
< 0.01	–	0.1 to 1	Cc1ccc(NC(=O)c2cccc(C(C)(C)C#N)c2)cc1NC(=O)c1sc2ncc(N3CCN(C)CC3)nc2c1N [Example 8, 7-amino-N-(5-(3-(2-cyanopropan-2-yl)benzamido)-2-methylphenyl)-2-(4-methylpiperazin-1-yl)thieno[2,3-b]pyrazine-6-carboxamide]
< 0.01	< 0.1	–	COCCNc1cnc2sc(C(=O)Nc3cc(NC(=O)c4cccc(C(C)(C)C#N)c4)ccc3C)c(N)c2n1 [Example 10, 7-amino-N-(5-(3-(2-cyanopropan-2-yl)benzamido)-2-methylphenyl)-2-(2-methoxyethylamino)thieno[2,3-b]pyrazine-6-carboxamide]
< 0.1	< 0.1	–	Cc1ccc(NC(=O)c2cccc(C(C)(C)C#N)c2)cc1NC(=O)c1sc2ncc(NC3CCOCC3)nc2c1N [Example 11, 7-amino-N-(5-(3-(2-cyanopropan-2-yl)benzamido)-2-methylphenyl)-2-(tetrahydro-2H-pyran-4-ylamino)thieno[2,3-b]pyrazine-6-carboxamide]
–	–	0.1 to 1	CNc1cnc2cc(C(=O)Nc3cc(NC(=O)c4cccc(C(C)(C)C#N)c4)ccc3C)sc2n1 [Example 59, N-(5-(3-(2-cyanopropan-2-yl)benzamido)-2-methylphenyl)-3-(methylamino)thieno[2,3-b]pyrazine-6-carboxamide]

SMILES	IC50 [1] [µM]	IC50 [2, 3] [µM]	IC50 [2, 4] [µM]
Cc1ccc(NC(=O)c2cccc(C(C)(C)C#N)c2)cc1NC(=O)c1sc2ncc(N3CCOCC3)nc2c1N [Example 9, 7-amino-N-(5-(3-(2-cyanopropan-2-yl)benzamido)-2-methylphenyl)-2-morpholinothieno[2,3-b]pyrazine-6-carboxamide]	< 0.01	< 0.1	–

Source: patent US8669256B2, “Substituted thieno[2,3-b]pyrazine compounds as modulators of B-Raf kinase activity” (Merck Sharp & Dohme B.V., priority 2010, dated 2014)
